{
  "source": "ChEMBL document CHEMBL4765294",
  "about": "“Discovery and evaluation of new compounds targeting ribosomal protein S1 in antibiotic-resistant Mycobacterium Tuberculosis” (Eur J Med Chem, 2020)",
  "key": {"[1]": {"test_system": "Mycobacterium tuberculosis", "assay": "Binding affinity to Mycobacterium tuberculosis RpsA Ala438 deleted mutant C-terminal domain (285 to 476 residues) at 500 uM by STD based analysis"}, "[2]": {"assay": "Binding affinity to Mycobacterium tuberculosis RpsA Ala438 deleted mutant C-terminal domain (285 to 476 residues) assessed as dissociation constant by fluorescence quenching titration based analysis"}, "[3]": {"test_system": "Mycobacterium tuberculosis", "assay": "Binding affinity to Mycobacterium tuberculosis RpsA Ala438 deleted mutant C-terminal domain (285 to 476 residues) assessed as quenching rate constant by fluorescence quenching titration based analysis"}},
  "note": "Activity calls are given as the source filed them. The calls are words filed in the database; no cut-off is given here.",
  "data": [
    {"smiles": "O=C(O)CSc1nc2nc[nH]c2c(=O)[nH]1", "values": [
      {"measurement": "Activity", "setting": "[1]", "value": "Active"},
      {"measurement": "Kd", "setting": "[2]", "value": 5.11, "unit": "µM"},
      {"measurement": "Kq", "setting": "[3]", "value": "1.91 10^12/M/s"}
    ]},
    {"smiles": "Cc1ccc(CNC(=O)COc2cc(O)c3c(=O)cc(-c4ccccc4)oc3c2)cc1", "values": [
      {"measurement": "Activity", "setting": "[1]", "value": "Active"},
      {"measurement": "Kd", "setting": "[2]", "value": 1.64, "unit": "µM"},
      {"measurement": "Kq", "setting": "[3]", "value": "6.64 10^12/M/s"}
    ]},
    {"smiles": "CC(Sc1nc(N)cc(N)n1)C(=O)O", "note": "(centres undefined)", "values": [
      {"measurement": "Kd", "setting": "[2]", "value": 1.74, "unit": "µM"}
    ]},
    {"smiles": "CCOC(=O)CSc1nc2nc[nH]c2c(=O)[nH]1", "values": [
      {"measurement": "Activity", "setting": "[1]", "value": "Active"},
      {"measurement": "Kd", "setting": "[2]", "value": 0.31, "unit": "µM"},
      {"measurement": "Kq", "setting": "[3]", "value": "3.4 10^12/M/s"}
    ]},
    {"smiles": "Cc1ccc(CNC(=O)CSc2nc3nc[nH]c3c(=O)[nH]2)cc1", "values": [
      {"measurement": "Activity", "setting": "[1]", "value": "Active"},
      {"measurement": "Kd", "setting": "[2]", "value": 8.5, "unit": "µM"},
      {"measurement": "Kq", "setting": "[3]", "value": "3.68 10^12/M/s"}
    ]},
    {"smiles": "Cc1cccc(CNC(=O)CSc2nc3nc[nH]c3c(=O)[nH]2)c1", "values": [
      {"measurement": "Activity", "setting": "[1]", "value": "Active"},
      {"measurement": "Kd", "setting": "[2]", "value": 4.67, "unit": "µM"},
      {"measurement": "Kq", "setting": "[3]", "value": "2.54 10^12/M/s"}
    ]},
    {"smiles": "Cc1cccc(CNC(=O)COc2cc(O)c3c(=O)cc(-c4ccccc4)oc3c2)c1", "values": [
      {"measurement": "Activity", "setting": "[1]", "value": "Active"},
      {"measurement": "Kd", "setting": "[2]", "value": 6.91, "unit": "µM"},
      {"measurement": "Kq", "setting": "[3]", "value": "2.33 10^12/M/s"}
    ]}
  ]
}
